From the NIST ThermoML archive (doi:10.1021/je800468h)
Values joined by “and” are separate entries in the source; they are usually repeats but may differ in a detail not shown here. Equal entries are not always repeated.

Columns and labels:
[1] = xn = mol fraction of the nth substance listed; conditions: 298.15 K, 101 kPa, Liquid; for electrical conductivity: Alternating current cell with electrodes; for mass density: Vibrating tube method
[2] = 298.15 K, 101 kPa, Liquid; for electrical conductivity: Alternating current cell with electrodes; for mass density: Vibrating tube method

CCCCn1cc[n+](C)c1.N#CN=C=[N-] [1-butyl-3-methylimidazolium dicyanamide] + O
[1]
Conditions	electrical conductivity [S/m]	mass density [kg/m3]
x1 = 0.009639	2.02	1003.22
x1 = 0.02791	3.49	1011.25
x1 = 0.05432	4.43	1019.63
x1 = 0.07995	4.8	1025.43
x1 = 0.1112	4.9	1031.05
x1 = 0.1933	4.47	1040.01
x1 = 0.3214	3.55	1047.31
x1 = 0.4686	2.71	1051.86
x1 = 0.6386	2	1055.38
x1 = 0.8742	1.37	1058.33
x1 = 1	1.139	1059.12

CCCCCCn1cc[n+](C)c1.F[B-](F)(F)F [1-hexyl-3-methylimidazolium tetrafluoroborate] + O
[1]
Conditions	electrical conductivity	mass density
x1 = 0.0007116	0.327 S/m	998.06 kg/m3
x1 = 0.001428	0.567 S/m	999.52 kg/m3
x1 = 0.001482	0.608 S/m	999.64 kg/m3
x1 = 0.002238	0.854 S/m	1001.24 kg/m3
x1 = 0.00296	1.05 S/m and 1.06 S/m	1002.63 kg/m3 and 1002.7 kg/m3
x1 = 0.003642	1.225 S/m	1003.94 kg/m3
x1 = 0.00447	1.411 S/m	1005.24 kg/m3
x1 = 0.004747	1.47 S/m	1005.61 kg/m3
x1 = 0.2816	2.03 S/m	1113.63 kg/m3
x1 = 0.314	1.829 S/m	1116.76 kg/m3
x1 = 0.3441	1.66 S/m	1119.43 kg/m3
x1 = 0.3813	1.46 S/m	1122.43 kg/m3
x1 = 0.4148	1.29 S/m	1124.75 kg/m3
x1 = 0.5139	0.898 S/m	1130.58 kg/m3
x1 = 0.5161	0.885 S/m	1130.73 kg/m3
x1 = 0.7069	0.417 S/m	1138.7 kg/m3
x1 = 1	0.1228 S/m	1146.34 kg/m3

CCCCn1cc[n+](C)c1.F[B-](F)(F)F [1-butyl-3-methylimidazolium tetrafluoroborate]
[2]
Conditions	electrical conductivity [S/m]	mass density [kg/m3]
–	0.353	1202.19

CCn1cc[n+](C)c1.F[B-](F)(F)F [1-ethyl-3-methylimidazolium tetrafluoroborate]
[2]
Conditions	electrical conductivity [S/m]	mass density
–	1.55	1283.7 kg/m3 and 1283.7 kg/m3 and 1280.38 kg/m3

CCCCCCn1cc[n+](C)c1.F[B-](F)(F)F [1-hexyl-3-methylimidazolium tetrafluoroborate]
[2]
Conditions	electrical conductivity [S/m]	mass density [kg/m3]
–	0.1228	1146.34

CC1COC(=O)O1 (stereo not given) [4-methyl-1,3-dioxolan-2-one] + CCCCn1cc[n+](C)c1.F[B-](F)(F)F
[1]
Conditions	electrical conductivity [S/m]	mass density [kg/m3]
x2 = 0.02318	0.537	1201.32
x2 = 0.04836	0.873	1202.51
x2 = 0.1028	1.23	1204.3
x2 = 0.1601	1.346	1205.43
x2 = 0.2277	1.332	1206.17
x2 = 0.3056	1.229	1206.51
x2 = 0.407	1.05	1206.44
x2 = 0.5126	0.875	1206.03
x2 = 0.6192	0.715	1205.48
x2 = 0.7173	0.593	1204.39
x2 = 0.8497	0.463	1203.39

CCCCn1cc[n+](C)c1.F[P-](F)(F)(F)(F)F [1-butyl-3-methylimidazolium hexafluorophosphate]
[2]
Conditions	electrical conductivity [S/m]	mass density [kg/m3]
–	0.147	1368.32

CCn1cc[n+](C)c1.F[B-](F)(F)F [1-ethyl-3-methylimidazolium tetrafluoroborate] + CC#N
[1]
Conditions	electrical conductivity [S/m]	mass density
x1 = 0.008411	1.58	791.26 kg/m3
x1 = 0.01082	1.9	795.48 kg/m3
x1 = 0.01528	2.46	802.59 kg/m3
x1 = 0.01646	2.55	804.68 kg/m3
x1 = 0.02252	3.13	814.3 kg/m3
x1 = 0.02253	3.14	813.87 kg/m3
x1 = 0.04929	4.89	853.38 kg/m3
x1 = 0.04942	4.94	854.17 kg/m3
x1 = 0.08059	6.03	893.87 kg/m3
x1 = 0.1007	6.5	916.26 kg/m3
x1 = 0.1218	6.72	939.88 kg/m3
x1 = 0.1433	6.94	960.07 kg/m3
x1 = 0.1736	6.92	988.57 kg/m3
x1 = 0.2043	6.91	1012.5 kg/m3
x1 = 0.2371	6.65	1038.16 kg/m3
x1 = 0.2778	6.41	1063.36 kg/m3
x1 = 0.3264	5.9	1093.25 kg/m3
x1 = 0.384	5.41	1120.11 kg/m3
x1 = 0.4565	4.64	1153.25 kg/m3
x1 = 0.4888	4.44	1163.04 kg/m3
x1 = 0.6478	3.2	1211.72 kg/m3
x1 = 0.652	3.1	1215.55 kg/m3
x1 = 0.759	2.54	1237.95 kg/m3
x1 = 0.8336	2.11	1255.87 kg/m3
x1 = 0.8902	1.95	1263.01 kg/m3
x1 = 1	1.55	1283.7 kg/m3 and 1280.38 kg/m3

CCn1cc[n+](C)c1.F[B-](F)(F)F [1-ethyl-3-methylimidazolium tetrafluoroborate] + O
[1]
Conditions	electrical conductivity [S/m]	mass density [kg/m3]
x1 = 0.004746	1.87	1007.69
x1 = 0.01001	3.26	1018.31
x1 = 0.02226	5.35	1040.22
x1 = 0.03637	6.81	1061.36
x1 = 0.05733	8.08	1087.31
x1 = 0.08102	8.84	1110.93
x1 = 0.115	9.24	1136.45
x1 = 0.174	9.08	1168.6
x1 = 0.2564	8.13	1198.61
x1 = 0.419	5.99	1233.28
x1 = 1	1.55	1283.7
